Measurements from the supplement of paper PMC10307832.

Legend:
Test in all cases: relative viability (nuclei count vs DMSO), 5 days (fraction); higher = more cells survive
Quizartinib + Lapatinib = compound: CC(C)(C)c1cc(NC(=O)Nc2ccc(-c3cn4c(n3)sc3cc(OCCN5CCOCC5)ccc34)cc2)no1 [Quizartinib] + CS(=O)(=O)CCNCc1ccc(-c2ccc3ncnc(Nc4ccc(OCc5cccc(F)c5)c(Cl)c4)c3c2)o1 [Lapatinib] (partner 2 µM)
Summary of the method: (§1)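 Lung cancer cell lines in 1536-well plates got either a single drug or a fixed anchor-drug dose together with five library-drug doses (not always all listed) in √10 steps, by pin tool, on the day after seeding. Nuclei were counted after 5 days, and relative viability is the treated-to-vehicle ratio of nuclei counts. Values are medians of duplicate plates.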

YM155 + Lapatinib = compound: COCC[n+]1c2c(n(Cc3cnccn3)c1C)C(=O)c1ccccc1C2=O [YM155] + CS(=O)(=O)CCNCc1ccc(-c2ccc3ncnc(Nc4ccc(OCc5cccc(F)c5)c(Cl)c4)c3c2)o1 [Lapatinib] (partner 2 µM)
Summary of the method: as §1

Quizartinib + Pictilisib = compound: CC(C)(C)c1cc(NC(=O)Nc2ccc(-c3cn4c(n3)sc3cc(OCCN5CCOCC5)ccc34)cc2)no1 [Quizartinib] + CS(=O)(=O)N1CCN(Cc2cc3nc(-c4cccc5[nH]ncc45)nc(N4CCOCC4)c3s2)CC1 [Pictilisib] (partner 1 µM)
Summary of the method: as §1

YM155 + Alpelisib = compound: COCC[n+]1c2c(n(Cc3cnccn3)c1C)C(=O)c1ccccc1C2=O [YM155] + Cc1nc(NC(=O)N2CCC[C@H]2C(N)=O)sc1-c1ccnc(C(C)(C)C(F)(F)F)c1 [Alpelisib] (partner 2 µM)
Summary of the method: as §1

Cell Line	relative viability (Quizartinib + Lapatinib; first compound 0.003162 µM)	relative viability (Quizartinib + Lapatinib; first compound 0.01 µM)	relative viability (Quizartinib + Lapatinib; first compound 0.03162 µM)	relative viability (Quizartinib + Lapatinib; first compound 0.1 µM)	relative viability (YM155 + Lapatinib; first compound 0.002 µM)	relative viability (YM155 + Lapatinib; first compound 0.006325 µM)	relative viability (YM155 + Lapatinib; first compound 0.02 µM)	relative viability (YM155 + Lapatinib; first compound 0.06325 µM)	relative viability (Quizartinib + Pictilisib; first compound 0.003162 µM)	relative viability (Quizartinib + Pictilisib; first compound 0.01 µM)	relative viability (Quizartinib + Pictilisib; first compound 0.03162 µM)	relative viability (Quizartinib + Pictilisib; first compound 0.1 µM)	relative viability (YM155 + Alpelisib; first compound 0.002 µM)	relative viability (YM155 + Alpelisib; first compound 0.006325 µM)	relative viability (YM155 + Alpelisib; first compound 0.02 µM)	relative viability (YM155 + Alpelisib; first compound 0.06325 µM)	relative viability (Quizartinib + Lapatinib; first compound 0.001 µM)	relative viability (Quizartinib + Pictilisib; first compound 0.001 µM)
NCI-H23	0.959	1.28	0.861	1.01	0.877	1.09	0.736	0.313	0.464	0.49	0.568	0.441	0.707	0.669	0.71	0.271	–	–
NCI-H322M	0.502	0.605	0.628	0.673	0.601	0.628	0.509	0.585	0.545	0.509	0.533	0.537	0.762	0.878	0.666	0.732	0.565	0.523
NCI-H358	0.516	0.412	–	0.39	0.326	0.447	0.344	0.199	0.332	0.305	–	0.315	0.801	0.871	0.911	0.283	0.349	0.297
NCI-H460	1.03	1.26	–	0.205	0.906	1.1	1.05	0.452	0.436	0.382	0.352	0.384	0.433	0.498	0.436	0.452	0.924	0.439
NCI-H520	0.766	0.828	0.85	0.591	0.801	0.733	1.16	1.02	0.273	0.307	0.287	0.245	0.858	1	0.853	0.871	0.649	0.306
NCI-H596	0.985	1.08	1.08	1.17	–	1.11	1.09	1.06	0.332	0.455	0.418	0.416	–	0.514	0.499	0.49	1.06	0.427
NCI-H647	1.1	1.12	0.97	0.985	1.13	1.08	0.799	0.405	0.434	0.536	–	0.474	0.989	1.11	1.09	0.901	0.966	0.466
NCI-H650	0.754	0.726	0.688	1.1	0.84	0.929	0.785	0.707	0.814	0.923	0.923	1.12	1.14	1.07	1.15	0.992	0.888	0.992
NCI-H661	0.457	0.436	0.468	0.691	0.522	0.575	0.575	0.421	0.388	0.364	–	0.467	0.637	0.657	0.862	0.59	0.493	0.425
NCI-H727	–	0.929	0.875	0.725	0.614	0.704	1.01	0.953	–	0.365	0.351	0.485	0.499	0.495	0.586	0.575	0.876	0.277
NCI-H838	1.11	0.784	0.675	0.605	0.92	1.01	1.03	0.353	0.479	0.356	0.39	0.377	0.971	0.991	1.05	0.316	0.816	0.389
NCI-H1299	0.932	0.956	0.922	0.903	0.949	0.962	0.908	0.176	0.735	0.797	0.726	0.881	0.993	1.01	1.05	1.07	0.983	0.835
NCI-H1355	0.992	1	0.914	1.06	0.934	1.04	0.996	1.02	0.418	0.41	0.426	0.5	0.846	0.869	0.932	0.963	0.979	0.352
NCI-H1395	0.941	0.883	0.842	1.2	1.06	1.05	1.25	1.13	0.65	0.661	0.695	0.667	1.13	1.24	1.14	1.12	0.992	0.478
NCI-H1437	0.827	0.764	0.45	0.543	0.72	0.784	0.767	0.708	0.37	0.425	0.327	0.314	0.958	1.03	0.993	0.835	0.738	0.475
NCI-H1563	0.824	0.935	–	0.897	0.924	0.994	0.986	1.05	0.68	0.649	–	0.626	0.916	0.977	0.895	0.902	0.697	0.719
NCI-H1651	0.831	0.781	0.274	0.821	0.869	0.861	0.726	0.601	0.626	0.588	0.423	0.625	0.979	0.904	0.925	0.694	0.718	0.42
NCI-H1666	0.634	0.727	0.38	0.639	0.629	–	0.77	0.562	0.325	0.415	0.399	0.264	0.822	–	1.11	0.844	0.691	0.458
NCI-H1703	0.432	0.379	0.216	0.315	1.11	0.982	0.452	0.179	0.183	0.216	0.154	0.24	0.292	0.394	0.373	0.339	1.18	0.3
NCI-H1734	1.1	1.08	0.873	0.998	1.09	1.08	1.13	0.969	0.472	0.477	0.411	0.44	0.63	0.658	0.697	0.776	0.869	0.508
NCI-H1755	0.98	1.1	1.07	1.04	1.04	1.03	1.01	1.04	0.439	0.416	0.401	0.436	0.892	0.926	0.973	1.02	0.909	0.39
NCI-H1792	0.853	0.969	0.866	0.932	0.95	0.92	0.943	0.895	0.247	0.281	0.235	0.385	0.67	0.73	0.703	0.759	0.796	0.317
NCI-H1793	0.743	0.82	0.899	0.795	–	0.584	0.606	0.479	0.398	0.249	0.362	0.334	–	0.601	0.659	0.565	0.533	0.304
NCI-H1915	0.931	0.938	0.965	1.04	0.968	0.946	0.918	0.784	0.875	0.698	1	1.05	1.06	1.01	1.08	0.975	0.939	0.838
NCI-H1944	0.868	0.707	0.792	0.721	0.842	0.724	0.767	0.82	0.327	0.319	0.322	0.31	0.83	0.756	0.803	0.905	0.768	0.347
NCI-H1975	0.894	0.847	0.864	1.18	0.701	0.774	0.856	0.175	0.282	0.283	0.284	0.281	0.627	0.665	0.581	0.549	0.746	0.288
NCI-H1993	0.846	0.72	0.746	0.891	0.81	0.736	0.682	0.757	0.776	0.812	0.807	0.808	0.691	0.726	0.673	0.657	0.786	0.917
NCI-H2009	0.865	0.884	0.695	0.93	0.888	0.893	0.946	0.119	0.799	0.833	0.604	0.737	1.2	1.14	1.11	0.504	0.141	0.475
NCI-H2023	0.819	0.737	0.293	0.846	0.884	0.827	0.867	0.49	0.271	0.216	0.121	0.245	0.589	0.671	0.594	0.156	0.0985	0.224
NCI-H2085	0.769	0.851	0.809	0.742	0.746	0.752	0.614	0.315	0.504	0.479	0.595	0.523	0.955	0.833	0.731	0.559	0.733	0.5
